Values joined by “and” are separate entries in the source; they are usually repeats but may differ in a detail not shown here. Equal entries are not always repeated.
Columns and labels:
SV2A = molecular target: T1, SV2A (Rattus norvegicus, UniProt Q02563); assay: in vivo SV2A receptor occupancy in rats; settings: ip, 0.1 mg/kg i.p., 60 minutes post administration
T1 construct: from tissue; host or cells: brain of living rats

[1] = anti-convulsant activity in vivo
[2] = treatment-emergent adverse events, multiple dose study in young male subjects; assay type: in vivo, human
Source text: Details on the adverse events occurring in the study is provided below. As may be seen the doses of interest were safe and well tolerated.

[3] = molecular target: T2, synaptic vesicle glycoprotein 2A (Homo sapiens, UniProt Q7L0J3); assay: [11C]-UCB-J PET receptor occupancy after single oral dose, healthy male subjects, with PK/occupancy model; assay type: in vivo; settings: for receptor occupancy: individual subjects
T2 construct: from tissue; host or cells: brain of living healthy male subjects (PET)
T2 sequence (Q7L0J3 whole entry): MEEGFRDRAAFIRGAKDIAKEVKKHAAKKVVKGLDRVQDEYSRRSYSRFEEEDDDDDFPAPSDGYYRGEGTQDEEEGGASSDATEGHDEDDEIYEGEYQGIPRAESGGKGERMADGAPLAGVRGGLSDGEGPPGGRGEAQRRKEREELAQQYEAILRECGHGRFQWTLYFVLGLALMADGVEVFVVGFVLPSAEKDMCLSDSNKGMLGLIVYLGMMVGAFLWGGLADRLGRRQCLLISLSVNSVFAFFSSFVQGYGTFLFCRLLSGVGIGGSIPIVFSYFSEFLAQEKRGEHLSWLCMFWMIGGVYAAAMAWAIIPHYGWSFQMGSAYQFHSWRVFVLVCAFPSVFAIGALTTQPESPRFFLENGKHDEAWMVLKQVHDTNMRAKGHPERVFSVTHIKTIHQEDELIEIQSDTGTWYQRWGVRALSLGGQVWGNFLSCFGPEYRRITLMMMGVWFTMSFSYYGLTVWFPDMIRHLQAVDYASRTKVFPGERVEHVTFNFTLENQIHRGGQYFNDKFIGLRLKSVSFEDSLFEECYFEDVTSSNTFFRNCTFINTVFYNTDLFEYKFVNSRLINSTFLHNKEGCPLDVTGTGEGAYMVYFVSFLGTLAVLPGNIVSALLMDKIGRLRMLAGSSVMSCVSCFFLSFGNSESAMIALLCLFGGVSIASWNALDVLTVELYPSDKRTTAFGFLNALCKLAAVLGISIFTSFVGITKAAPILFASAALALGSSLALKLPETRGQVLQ
Method: All images were acquired using the PET/MR Scanner: GE Signa TOF PET-MR 3 Tesla with software version MP26. As gamma counter, a 1480 Wizard well type gamma counter met 3-inch NaI crystal was used.
[^11C]-UCB-J is a PET tracer for imaging the synaptic vesicle glycoprotein 2A in the human brain. [^11C]-UCB-J is (4R)-1-{[3-(^11C)Methylpyridin-4-yl]methyl}-4-(3,4,5-trifluorophenyl)pyrrolidin-2-one.
Participants arrived approximately 90 minutes prior to the scheduled scan. This allowed the positioning of all necessary peripheral catheters before the start of the PET scan. Prior to PET imaging, at the PET centre, an indwelling venous cannula was inserted into an antecubital vein of the forearm to inject the radioligand. When required, an indwelling arterial catheter was placed in the radial artery of the opposite arm (if not feasible, can be in same arm) by a trained physician after numbing the area with a local anaesthetic prior to placement to withdraw blood for the measurement of the PET input function. On each PET scan day, no more than 3 skin penetrations per arm and one arterial penetration per arm were permitted before trying in the other arm. The venous catheter was used for the injection of [^11C]-UCB-J. [^11C]UCB-J was administered as an i.v. bolus into the antecubital vein over approximately 20 seconds. The tracer volume was between 6 ml and 12 ml. With the pump system configured to inject 0.33 ml per second, tracer injection time varied between 18 sec and 36 sec. The arterial catheter was used for collection of arterial blood samples and no participant received more than two arterial catheterizations during their participation in the study. An arterial catheter was maintained for up to 2 days depending on evaluation by medical staff. In case two arterial catheters were placed during the study conduct, then placement in alternate wrists was done. If the medical staff decided to remove an arterial catheter at any given time, a new one was placed for a next scan taking into account that no more than two arterial catheterizations per participant were allowed. Participants were asked to void their bladder before the start of each PET scan. Participants were positioned in the PET scanner so that scans were acquired in 3D list-mode in one bed position and the entire brain volume was included in the field of view. At screening and simultaneous with the PET acquisition, both a 3D volumetric T1-weighted BRAVO sequence (plane: sagittal; TE: 3.2 ms; TR: 8.5 ms; TI: 450 ms; Flip Angle: 12; Receiver Bandwidth: 31.2; NEX: 1; voxelsize: 1×1×1 mm) and 3D T2-weighted CUBE FLAIR sequence (plane: sagittal direction; TE: 137 ms; #echoes: 1; echo train length: 190; TR: 8500 ms; […]; Receiver Bandwidth: 31.25; NEX: 1; voxelsize: 1.2×1.3×1.4 mm) were acquired to detect possible structural abnormalities, and serve as an anatomical reference to define ROIs when co-registered with the PET scan. To correct for attenuation, a Zero-Echo Time (ZTE) scan was taken to allow the generation of a MR based attenuation map. At intermediate time points during acquisition, the ZTE sequence was repeated to have additional data for adjusting the MR based attenuation map in case of severe head motion. Next to anatomical MR sequences, eASL and rs-fMRI data were acquired simultaneously with the PET data, to determine regional cerebral blood flow and regional interactions in the brain in a resting or task-negative state. At least one eASL and one rs-fMRI sequence were performed during the PET acquisition but these sequences were repeated if time allowed. The total duration of the emission scan was 90 minutes. PET data will be rebinned in time frames according to the following scheme: • 6×15s-3×30s-3×60s-2×90s-2×3 min-9×5 min-3×10 min […]

T1 sequence (Q02563 whole entry): as the sequence (Q7L0J3 whole entry) above, with D53E, S62A, T71A, E144D, A154T, G440S, S482A, I572V, M634L counted along it

Structure (SMILES): O=C1C[C@H](c2cc(F)c(F)c(F)c2)CN1Cn1ncnc1Cl [compound of example 1, (4R)-1-[(5-chloro-1H-1,2,4-triazol-1-yl)methyl]-4-(3,4,5-trifluorophenyl)pyrrolidin-2-one]
- receptor occupancy at 0.1 mg/kg (SV2A): 20 to 50%
- anti-convulsant activity [1]: without anti-convulsant activity
- effect on the anti-convulsant effect of levetiracetam [1]: competitively inhibits
- At least 1 TEAE definitively related to treatment, n (%) ([2]; 5 mg, N = 6): 0 n (%)
- At least 1 TEAE possibly related to treatment, n (%) ([2]; 5 mg, N = 6): 0 n (%)
- At least 1 TEAE probably related to treatment, n (%) ([2]; 5 mg, N = 6): 0 n (%)
- At least one TEAE, n (%) ([2]; 5 mg, N = 6): 0 n (%)
- At least 1 TEAE definitively related to treatment, n (%) ([2]; 10 mg, N = 6): 0 n (%)
- At least 1 TEAE possibly related to treatment, n (%) ([2]; 10 mg, N = 6): 0 n (%)
- At least 1 TEAE probably related to treatment, n (%) ([2]; 10 mg, N = 6): 1 (16.7) n (%)
- At least one TEAE, n (%) ([2]; 10 mg, N = 6): 2 (33.3) n (%)
- At least 1 TEAE definitively related to treatment, n (%) ([2]; 20 mg, N = 6): 0 n (%)
- At least 1 TEAE possibly related to treatment, n (%) ([2]; 20 mg, N = 6): 4 (66.7) n (%)
- At least 1 TEAE probably related to treatment, n (%) ([2]; 20 mg, N = 6): 0 n (%)
- At least one TEAE, n (%) ([2]; 20 mg, N = 6): 4 (66.7) n (%)
- At least 1 TEAE definitively related to treatment, n (%) ([2]; all doses, N = 18): 0 n (%)
- At least 1 TEAE possibly related to treatment, n (%) ([2]; all doses, N = 18): 4 (22.2) n (%)
- At least 1 TEAE probably related to treatment, n (%) ([2]; all doses, N = 18): 1 (5.6) n (%)
- At least one TEAE, n (%) ([2]; all doses, N = 18): 6 (33.3) n (%)
- receptor occupancy ([3]; 1 mg single oral dose, 22 h): below level of detection
- receptor occupancy ([3]; 1 mg single oral dose, tmax (2 h)): 25% and 21%
- receptor occupancy ([3]; 2 mg single oral dose, 22 h): 19% and 20%
- receptor occupancy ([3]; 2 mg single oral dose, tmax (2 h)): 42% and 39%
- receptor occupancy ([3]; 10 mg single oral dose, 22 h): 46% and 50%
- receptor occupancy ([3]; 10 mg single oral dose, tmax (2 h)): 68% and 69%
- receptor occupancy ([3]; 20 mg single oral dose, 26 h): 56% and 66%
- receptor occupancy ([3]; 20 mg single oral dose, tmax (2 h)): 76%
- emax of PK/occupancy model (mean) ([3]; humans): 84.9
- EC50 ([3]; humans, plasma concentration, read-out: EC50, plasma concentration vs SV2A occupancy (PK/occupancy model, mean) (converted)): 75.3 nM

— US20240325353A1, “COMPOUND FOR TREATMENT OF COGNITIVE DISORDERS” (Syndesi Therapeutics SA, priority 2021, published 2024)
